Measurements: paper PMC9016803, “Mitochondria-targeted half-sandwich iridium(III)-Cp*-arylimidazophenanthroline complexes as antiproliferative and bioimaging agents against triple negative breast cancer cells MDA-MB-468” (RSC Advances, 2022)

Tests used:
[1] = n-Octanol/water partition coefficient, shake flask method; type: physicochemical
Procedure: Both hydrophilicity and lipophilicity studies were performed to determine the tumour-inhibiting potential of the metal complexes. These complexes were highly soluble in DMSO and moderately soluble in H2O, MeOH, EtOH and CH3CN. […] The lipophilicity of these complexes was determined by performing an n-octanol/water partition coefficient (log Po/w, where Po/w = the octanol/water partition coefficient) study using the shake flask method (Table 1).[24] The experimental log Po/w values of these complexes were determined to be in the range of 0.27–0.34 (Table 1). […] This change in the electrolytic behaviour of the complexes from 1 : 1 to 1 : 2 can be attributed to the dissociation of the Ir–Cl bond and subsequent aquation of the complexes. […]
n-Octanol–water partition coefficient (log P o/w)9
The log Po/w of the iridium complexes were adhering to shake flask method using the previously published procedure. A known amount of each complex (IrL1-IrL5) was suspended in water (pre-saturated with n-octanol) and shaken for 48 h on an orbital shaker.
To allow the phase separation, the solution was centrifuged for 10 min at 3000 rpm. To obtain the partition coefficient, different ratios (0.5: 1, 1: 1, and 2: 1) of the saturated solutions were shaken with pre-saturated n-octanol for 20 min on an orbital shaker and followed the same procedure. Aliquots of the aqueous and octanol layers were pipetted out separately and the absorbances were measured with UV-Vis spectrophotometer using proper dilution. Each set was performed in triplicate, concentration of the substances in each layer was calculated using the respective molar extinction coefficients and the partition coefficient (log P o/w) values were obtained from the ratio.

Solubility study = type: physicochemical; details: DMSO-10% DMEM medium (1 : 99 v/v, comparable to cell media)
Procedure: Both hydrophilicity and lipophilicity studies were performed to determine the tumour-inhibiting potential of the metal complexes. These complexes were highly soluble in DMSO and moderately soluble in H2O, MeOH, EtOH and CH3CN. […] The lipophilicity of these complexes was determined by performing an n-octanol/water partition coefficient (log Po/w, where Po/w = the octanol/water partition coefficient) study using the shake flask method (Table 1).[24] The experimental log Po/w values of these complexes were determined to be in the range of 0.27–0.34 (Table 1). […] This change in the electrolytic behaviour of the complexes from 1 : 1 to 1 : 2 can be attributed to the dissociation of the Ir–Cl bond and subsequent aquation of the complexes.

MDA-MB-468 cells [2] = assay: MTT in vitro cytotoxicity assay, triple negative breast cancer cells; type: cell-based; details: MDA-MB-468, MTT, 48 h
Procedure: The in vitro cytotoxicity of complexes IrL1–IrL5 and cisplatin were investigated using the typical 3-(4,5-dimethylthiazol-2-yl)-2,5-diphenyltetrazolium bromide (MTT) assay protocol against a panel of triple negative cancer cell line MDA-MB-468. The cells were initially incubated with the all test compounds at concentrations ranging from 0.5–50 μM for 48 h in vitro.
Cytotoxicity study of all the synthesized compounds against triple negative breast cancer cells MDA-MB-468 and immortalized human keratinocyte cell line HaCaT were done with a drug incubation period of 48 h by following standard procedure that were mentioned in ESI. ^† Preliminary studies were done to understand the mode of action of the complex to induce cytotoxicity using flow cytometric methods.
For doing the cell culture the cells were retained in DMEM media (Gibco), added with 10% fetal bovine serum (Himedia, India), 1% penicillin and streptomycin and 1% of Glutmax (Gibco, Thermo Scientific, USA) at 37°C in 5% CO2. When the cells attained 70%-80% confluency they were trypsinized using 0.25% trypsin-EDTA (Thermo Fisher Scientific, […]
In vitro cytotoxicity study was measured by standard MTT assay protocol.1 First the prepared complexes (IrL1-IrL5) were dissolved in 0.1% DMSO followed by dilution with DMEM medium. One cancer cell lines i.e. triple negative breast cancer cells (MDA-MB-468) and one normal cell line i.e. immortalized human keratinocyte cell line (HaCaT) were used for this assay. Approximately 1×10^4 cells per well were cultured in 100 μl of a growth medium in 96-well plates and then incubated under 5% CO2 atmosphere at 37°C temperature. Then the incubated cells were treated with different concentrations of the complexes in the volume of […]. The cisplatin was taken as standard positive control for this experiment. The Cells which were in the control wells, also engaged the same volume of medium containing 0.1% DMSO. After 48 h, the medium was superfluous and cell cultures were again incubated with 100 μL of MTT reagent (1 mg/ml) for 5 h at 37 °C. Then the resultant suspension was kept on micro vibrator for 10 min and the absorbance was recorded at λ = 570 nm in ELISA plate reader. The experiment was also performed in triplicate. The data were represented as the growth inhibition percentage i.e. % growth inhibition = 100 − [(AD × 100)/AB], where AD, measured absorbance in wells which contain samples and AB, measured absorbance for blank wells (cells with a medium and a vehicle). […]

MDA-MB-468 cells [3] = assay: Mitochondrial membrane potential, JC-1 staining, flow cytometry; type: cell-based; details: positive control
Procedure: The cells treated with the mitochondrial uncoupler CCCP (carbonyl cyanide m-chlorophenylhydrazone), which mediates the dissipation of mitochondrial membrane potential, served as positive control for the detection of mitochondrial dysfunction. […] Unstained control represented in Fig. 10A has been used for gating purposes. […]

MDA-MB-468 cells [4] = assay: ROS generation, DCFDA staining; type: cell-based; details: positive control
Procedure: Our results indicated a dose dependent increase in ROS production in the MDA-MB-468 cells treated with IrL1 concentrations 1 μM and 3 μM. The extent of ROS production is indicated by the 2′,7′-dichlorofluorescein (DCF) formed by the deacetylation and subsequent oxidation of 2′,7′-dichlorofluorescin diacetate (DCFDA) through cellular esterases and ROS. […] ROS production was absent in untreated control. However, in the positive control, treated with H2O2, ROS production was high which is ∼99% (Fig. 11).
Colocalization study and ROS generation studies were performed using live cell lines in their log phase.

Row | Compound | log P (n-octanol/water partition coefficient) [1] | Solubility (Solubility study) [µM] | IC50 (MDA-MB-468 cells [2]) [µM] | cells retaining healthy mitochondria (JC-1 aggregates) (MDA-MB-468 cells [3]) [%] | cells with damaged mitochondria (JC-1 monomers) (MDA-MB-468 cells [3]) [%] | ROS production (MDA-MB-468 cells [4]) [%]
1 | [Iridium(III)-Cp*-2-(anthracen-1-yl)-1H-imidazo[4,5-f][1,10]phenanthroline]PF6 [IrL2] | 0.34 ± 0.07 | 600 | 20.4 |  |  | 
2 | [Iridium(III)-Cp*-2-((3aR,7aR)-3a,7a-dihydro-1H-indol-3-yl)-1H-imidazo[4,5-f][1,10]phenanthroline]PF6 [IrL4] | 0.02 ± 0.05 | 900 | 5.2 |  |  | 
3 | N#CC(C#N)=NNc1cccc(Cl)c1 [CCCP, carbonyl cyanide m-chlorophenylhydrazone, reference compound] |  |  |  | ~20 | ~79 | 
4 | [Iridium(III)-Cp*-2-((3aR,7aR)-3a,7a-dihydrobenzo[b]thiophen-2-yl)-1H-imidazo[4,5-f][1,10]phenanthroline]PF6 [IrL5] | 0.29 ± 0.08 | 700 | 4.41 |  |  | 
5 | [Iridium(III)-Cp*-3-(1H-imidazo[4,5-f][1,10]phenanthrolin-2-yl)-4H-chromen-4-one]PF6 [IrL3] | −0.23 ± 0.2 | 1200 | 20.3 |  |  | 
6 | OO [H2O2, reference compound] |  |  |  |  |  | ~99
